Read-outs that look alike come from different tables or passages of the source. Numbered stars: 1 amine (or outer) side, 2 acyl side, 3 side chain; on linkers, the order of the positions; unused ones are H or OH. Square brackets hold non-standard residues; d marks the D form. Peptide text beside a SMILES is read from it. * marks the point of attachment. ξ: configuration not given here. d(β3hW) = N[C@@H](CC(=O)O)Cc1c[nH]c2ccccc12; dNMeW = CN[C@H](Cc1c[nH]c2ccccc12)C(=O)O; d(β3hA) = C[C@@H](N)CC(=O)O; dNle = CCCC[C@@H](N)C(=O)O; ξ2Thi = NC(Cc1cccs1)C(=O)O; Cbz = O=C(OCc1ccccc1)*; PhAc = O=C(Cc1ccccc1)*; Boc = CC(C)(C)OC(=O)*; Aib = CC(C)(N)C(=O)O; CO = O=C([*:1])[*:2]; OBn = c1ccc(CO*)cc1; NHtBu = CC(C)(C)N*; Bn = c1ccc(C*)cc1; GABA = NCCCC(=O)O; βAla = NCCC(=O)O; NEt2 = CCN(CC)*; NHiPr = CC(C)N*
Target: T1, endothelin receptor (membrane of smooth muscle tissue of porcine aorta) (Sus scrofa, UniProt Q29010)
T1 construct: from tissue; host or cells: porcine aorta smooth muscle, membrane fraction
T1 sequence (Q29010 21-427): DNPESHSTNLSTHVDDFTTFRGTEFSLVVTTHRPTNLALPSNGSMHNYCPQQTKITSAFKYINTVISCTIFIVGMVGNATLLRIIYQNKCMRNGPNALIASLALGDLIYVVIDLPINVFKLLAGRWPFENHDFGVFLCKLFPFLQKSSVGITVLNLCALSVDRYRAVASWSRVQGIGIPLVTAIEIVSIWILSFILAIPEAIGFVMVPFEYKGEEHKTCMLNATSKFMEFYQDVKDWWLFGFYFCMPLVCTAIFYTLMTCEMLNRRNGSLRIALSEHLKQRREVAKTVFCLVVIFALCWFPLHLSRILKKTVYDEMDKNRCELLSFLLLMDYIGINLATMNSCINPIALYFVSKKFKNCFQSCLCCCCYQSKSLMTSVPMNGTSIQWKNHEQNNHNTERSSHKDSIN
Assay: Endothelin binding inhibition test (125I-endothelin-1, porcine aorta smooth muscle membrane)
Conditions: read-out: 125I-endothelin-1 binding inhibition
Method: The smooth muscle tissue of porcine aorta was homogenized in a buffer solution of 10 mM MOPS, pH 7.4, at 4° C. by a polytron. To the homogenate, sucrose was added to a concentration of 20%, and the mixture was centrifuged at 1,000×g for 15 minutes, and the supernatant was further centrifuged at 10,000×g for 15 minutes. The supernatant thereof was further centrifuged at 90,000×g for 40 minutes. The membrane precipitate thereby obtained was suspended in a buffer solution of 5 mM HEPES/Tris, pH 7.4, at a concentration of 25 mg/ml.
Then, 16 μl of this membrane suspension was added to 340 μl of 50 mM Tris/HCl buffer, pH 7.4, containing 10 μM calcium chloride, 10 μM magnesium chloride, 0.1 mM PMSF, 1 μM pepstatin A, 2 μM leupeptin, 1 mM 1,10-phenanthroline and 0.1% bovine serum albumin. To this suspension, 4 μl of (A) endothelin-1 (for nonspecific binding; 0.2 μM as the final concentration), (B) buffer solution A (for total control binding), or (C) a test compound (1.1 μM or 10 μM as the final concentration),was added. Further, to each suspension, 40 μl of ^125 I-endothelin-1 (12000-18000 cpm) was added. These mixtures were incubated at 25° C. for 4 hours, then subjected to filtration on a glass filter GF/C and then washed with 5 mM HEPES/Tris, pH 7.4, containing 0.3% bovine serum albumin. Then, the radioactivity trapped by the glass filter was measured, and the ^125 I-endothelin-1 binding inhibition D (%) at 1.1 μM or 10 μM of the test compound was determined by the following equation. [formula] Each test was performed in triplicate.
The test compounds are indicated by Compound Nos.

Compound	inhibition at 1.1 µM (1.1 μM test compound (no mark)) [%]	further results
CC(C)C[C@H](NC(=O)OC(C)(C)C)C(=O)N[C@H](Cc1c[nH]c2ccccc12)C(=O)NCCCC(=O)O [Compound 5] (Boc-Leu-[dW]-[GABA]-OH)	33	–
CC(C)C[C@H](NC(=O)OC(C)(C)C)C(=O)N(C)[C@H](Cc1c[nH]c2ccccc12)C(=O)NCCC(=O)O [Compound 32] (Boc-Leu-[dNMeW]-[βAla]-OH)	–	inhibition at 10 µM (10 μM test compound (marked *)): 32%
CC(C)C[C@H](NC(=O)N1CCCCCC1)C(=O)N[C@H](Cc1c[nH]c2ccccc12)C(=O)NCCC(N)=O [Compound 135]	39	–
Cc1nc[nH]c1CSC[C@@H](NC(=O)[C@@H](Cc1c[nH]c2ccccc12)NC(=O)[C@H](CC(C)C)NC(=O)OC(C)(C)C)C(=O)O [Compound 22]	–	inhibition at 10 µM (10 μM test compound (marked *)): 36%
CC(C)C[C@H](NC(=O)NC(C)C)C(=O)N[C@H](Cc1c[nH]c2ccccc12)C(=O)NCC(=O)O [Compound 89] ({NHiPr-CO}-Leu-[dW]-Gly-OH)	–	inhibition at 10 µM (10 μM test compound (marked *)): 55%
CC(C)C[C@H](NC(=O)N1CCCCCC1)C(=O)N[C@H](CC1C(=O)Nc2ccccc21)C(=O)N[C@H](C)CC(=O)O (stereo partly shown) [Compound 139]	66	–
CC(C)C[C@H](NC(=O)N1CCCCCC1)C(=O)N[C@H](Cc1cn(C=O)c2ccccc12)C(=O)N[C@H](Cc1c[nH]cn1)C(=O)O [Compound 156]	86	–
CC(C)C[C@H](NC(=O)OC(C)(C)C)C(=O)N[C@H](Cc1c[nH]c2ccccc12)C(=O)N[C@@H](C(=O)O)c1cccs1 [Compound 42]	56	–
CC(C)C[C@H](NC(=O)OC(C)(C)C)C(=O)N[C@H](Cc1c[nH]c2ccccc12)C(=O)NCC(=O)NCC(=O)O [Compound 23] (Boc-L[dW]GG-OH)	33	–
CC(C)C[C@H](NC(=O)OC(C)(C)C)C(=O)N[C@H](Cc1c[nH]c2ccccc12)C(=O)N[C@@H](CC(=O)OCc1ccccc1)C(N)=O [Compound 37] (Boc-Leu-[dW]-Asp(OBn)-NH2)	–	inhibition at 10 µM (10 μM test compound (marked *)): 29%
CC(C)C[C@H](NC(=O)NC(C)(C)C)C(=O)N[C@H](Cc1c[nH]c2ccccc12)C(=O)NCCC(=O)O [Compound 85] ({NHtBu-CO}-Leu-[dW]-[βAla]-OH)	77	–
CC(C)C[C@H](NC(=O)OC(C)(C)C)C(=O)N[C@H](Cc1c[nH]c2ccccc12)C(=O)N[C@@H](CC(=O)O)Cc1c[nH]c2ccccc12 [Compound 19] (Boc-Leu-[dW]-[d(β3hW)]-OH)	–	inhibition at 10 µM: 53%
CCN(CC)C(=O)N[C@@H](CC(C)C)C(=O)N[C@H](Cc1c[nH]c2ccccc12)C(=O)NCCC(=O)O [Compound 77] ({NEt2-CO}-Leu-[dW]-[βAla]-OH)	47	–
CC(C)C[C@H](NC(=O)N1CCCCCC1)C(=O)N[C@H](Cc1c[nH]c2ccccc12)C(=O)N[C@H](C)CC(=O)O [Compound 52]	84	–
CC(C)C[C@H](NC(=O)OC(C)(C)C)C(=O)N[C@H](Cc1c[nH]c2ccccc12)C(=O)NN(CC(=O)O)Cc1ccccc1 [Compound 149]	–	inhibition at 10 µM (10 μM test compound (marked *)): 58%
CC(C)C[C@H](NC(=O)OC(C)(C)C)C(=O)N[C@H](Cc1c[nH]c2ccccc12)C(=O)NCC(=O)O [Compound 31] (Boc-Leu-[dW]-Gly-OH)	45	–
CC(C)C[C@H](NC(=O)OC(C)(C)C)C(=O)N[C@H](Cc1c[nH]c2ccccc12)C(=O)NC(CC(=O)O)c1ccccc1 (stereo partly shown) [Compound 14]	64	–
CC(C)C[C@H](NC(=O)Cc1ccccc1)C(=O)N[C@H](Cc1c[nH]c2ccccc12)C(=O)NCCC(=O)O [Compound 70] (PhAc-Leu-[dW]-[βAla]-OH)	32	–
CC(C)C[C@H](NC(=O)N(C)C(C)(C)C)C(=O)N[C@H](Cc1cn(C=O)c2ccccc12)C(=O)N[C@H](Cc1c[nH]c2ccccc12)C(=O)O [Compound 174]	81	–
CC(C)C[C@H](NC(=O)N1CCCCCC1)C(=O)N[C@H](Cc1cn(C=O)c2ccccc12)C(=O)N[C@H](C)CC(=O)O [Compound 132]	85	–
CCCC[C@@H](NC(=O)[C@@H](Cc1c[nH]c2ccccc12)NC(=O)[C@H](CC(C)C)NC(=O)OC(C)(C)C)C(=O)O [Compound 11] (Boc-Leu-[dW]-[dNle]-OH)	41	–
CC(C)C[C@H](NC(=O)c1cccs1)C(=O)N[C@H](Cc1c[nH]c2ccccc12)C(=O)NCCC(=O)O [Compound 55]	54	–

Compound	inhibition at 1.1 µM (1.1 μM test compound (no mark)) [%]	further results
CC(C)C[C@H](NC(=O)OC(C)(C)C)C(=O)N[C@H](Cc1c[nH]c2ccccc12)C(=O)N[C@H](Cc1ccc(OCc2ccccc2)cc1)C(=O)O [Compound 137] (Boc-Leu-[dW]-[dY](Bn)-OH)	46	–
COC(=O)C[C@@H](C)NC(=O)[C@@H](Cc1c[nH]c2ccccc12)NC(=O)[C@H](CC(C)C)NC(=O)N1CCCCCC1 [Compound 51]	68	–
CC(C)C[C@H](NC(=O)OC(C)(C)C)C(=O)N[C@H](Cc1c[nH]c2ccccc12)C(=O)NC(C)(C)C(=O)O [Compound 13] (Boc-Leu-[dW]-[Aib]-OH)	39	–
CC(C)C[C@H](NC(=O)N1CCCCCC1)C(=O)N[C@H](Cc1cn(C=O)c2ccccc12)C(=O)N[C@H](C)CS(=O)(=O)O [Compound 162]	86	–
COP(=O)(OC)n1cc(C[C@@H](NC(=O)[C@H](CC(C)C)NC(=O)N2CCCCCC2)C(=O)N[C@H](Cc2c[nH]c3ccccc23)C(=O)O)c2ccccc21 [Compound 191]	–	inhibition at 10 µM: 74%
CC(C)C[C@H](NC(=O)N1CCCCCC1)C(=O)N[C@H](Cc1c[nH]c2ccccc12)C(=O)NCCS(=O)(=O)O [Compound 53]	86	–
CC(C)C[C@H](NC(=O)N1CCCCCC1)C(=O)N[C@H](Cc1c[nH]c2ccccc12)C(=O)NCCC(=O)NS(=O)(=O)c1ccccc1 [Compound 157]	–	inhibition at 1.1 µM: 69%
CC(C)C[C@H](NC(=O)OC(C)(C)C)C(=O)N[C@H](Cc1c[nH]c2ccccc12)C(=O)NN(CC(=O)O)CC(=O)O [Compound 147]	–	inhibition at 10 µM (10 μM test compound (marked *)): 57%
CC(C)C[C@H](NC(=O)OC(C)(C)C)C(=O)N[C@H](Cc1c[nH]c2ccccc12)C(=O)N[C@H](CCCCNC(=O)OCc1ccccc1)C(=O)O [Compound 8] (Boc-Leu-[dW]-[dK](Cbz)-OH)	56	–
CC(C)C[C@H](NC(=O)NN1CCCC1)C(=O)N[C@H](Cc1c[nH]c2ccccc12)C(=O)NCCC(=O)O [Compound 152]	–	inhibition at 10 µM (10 μM test compound (marked *)): 58%
COC(=O)[C@@H](Cc1c[nH]cn1)NC(=O)[C@@H](Cc1c[nH]c2ccccc12)NC(=O)[C@H](CC(C)C)NC(=O)N1CCCCCC1 [Compound 47]	75	–
CC(C)C[C@H](NC(=O)OC(C)(C)C)C(=O)N[C@H](Cc1c[nH]c2ccccc12)C(=O)NC(Cc1cccs1)C(=O)O (stereo partly drawn) [Compound 15] (Boc-Leu-[dW]-[ξ2Thi]-OH)	71	–
CC(C)C[C@H](NC(=O)OC(C)C)C(=O)N[C@H](Cc1c[nH]c2ccccc12)C(=O)NCCC(=O)O [Compound 71]	29	–
CC(C)C[C@H](NC(=O)C=C1SC=CS1)C(=O)N[C@H](Cc1c[nH]c2ccccc12)C(=O)NCCC(=O)O [Compound 67]	63	–
CC(C)C[C@H](NC(=O)N1CCCC1(C)C)C(=O)N[C@H](Cc1c[nH]c2ccccc12)C(=O)N[C@H](Cc1c[nH]c2ccccc12)C(=O)O [Compound 173]	84	–
CC(C)C[C@H](NC(=O)OC(C)(C)C)C(=O)N[C@H](Cc1c[nH]c2ccccc12)C(=O)N[C@H](C)CC(=O)O [Compound 1] (Boc-Leu-[dW]-[d(β3hA)]-OH)	74	–
CC(C)C[C@H](NC(=O)N(C)c1ccccc1)C(=O)N[C@H](Cc1c[nH]c2ccccc12)C(=O)NCCC(=O)O [Compound 76]	52	–
COC(CNC(=O)[C@@H](Cc1c[nH]c2ccccc12)NC(=O)[C@H](CC(C)C)NC(=O)OC(C)(C)C)C(=O)O (stereo partly shown) [Compound 146]	–	inhibition at 10 µM (10 μM test compound (marked *)): 70%
CC(C)C[C@@H](C(=O)N[C@H](Cc1c[nH]c2ccccc12)C(=O)N[C@H](Cc1c[nH]c2ccccc12)C(=O)O)N1C(=O)CN(C2CCCC2)C1=O [Compound 155]	70	–
CC(C)C[C@H](NC(=O)NC12CC3CC(CC(C3)C1)C2)C(=O)N[C@H](Cc1c[nH]c2ccccc12)C(=O)NCCC(=O)O [Compound 113]	69	–
CC(C)C[C@H](NC(=O)NC(C)(C)C)C(=O)N[C@H](Cc1c[nH]c2ccccc12)C(=O)N[C@H](Cc1c[nH]c2ccccc12)C(=O)O [Compound 81] ({NHtBu-CO}-Leu-[dW]-[dW]-OH)	84	–

Reference: patent US5470833A, “Endothelin antagonistic peptide derivatives” (Banyu Pharmaceutical Co., Ltd., priority 1990, dated 1995)
